Results as given in article PMC10483525, “Synthesis, Structural Investigations, DNA/BSA Interactions, Molecular Docking Studies, and Anticancer Activity of a New 1,4-Disubstituted 1,2,3-Triazole Derivative” (ACS Omega, 2023).

How the values were obtained:
Assay in all cases: MTT assay
Format in all cases: cell-based, human
[1] = system: HEK-293
Description: (§1) Human cancer cell lines (MDA-MB-231, LNCaP, Caco-2) and a human healthy cell line (HEK-293) were obtained from the European Collection of Cell Cultures. The cells were incubated in a humidified incubator (37 °C, 5% CO2) and cultured under standard conditions in Dulbecco’s modified Eagle medium (DMEM), 10% heat-inactivated fetal bovine serum, 100 U mL^–1 penicillin, 100 U mL^–1 streptomycin, and 4 mM L-glutamine. […] A cell culture medium was used to make further dilutions, while keeping the equivalent of DMF below 0.5% of the total volume.[94] […]
(§2) 7. Cell Viability Inhibition Assay
(§3) MDA-MB-231, LNCaP, Caco-2 and HEK-293 cells (5x10^3 per well) seeded in 96-well plates to assess cell viability by the 3-[4,5-dimethylthiazol-2-yl]-2,5-diphenyltetrazolium bromide (MTT) assay for 24 h at 37°C. Then cells were treated with compound 3 at different concentrations (3-100 µM) at 100μl/well. In parallel, the traditional anticancer agent cisplatin and etoposid was used as positive controls under identical conditions. After 24, 48 and 72 h incubation, 5 mg/ml MTT solution (20 μl/well) was added and cultured for another 4 h. Then, the supernatant was discarded and dimethyl sulfoxide was added (100 μl/well). The absorbance (A) was measured spectrophotometrically at 540 nm by a Microplate Reader (SpectraMax i3x).
(§4) A graph was plotted between the concentrations of the extract versus the percent viability. The […]
(§5) calculated from graph. All assays were performed in three replicates per concentration level. 11 […]

[2] = system: LNCaP; settings: for IC50: LNCaP
Description: as §1, §2, §3, §4, §5

[3] = system: MDA-MB-231
Description: as §1, §2, §3, §4, §5

[4] = system: Caco-2; settings: for IC50: Homo sapiens
Description: as §1, §2
MDA-MB-231, LNCaP, Caco-2 and HEK-293 cells (5x10^3 per well) seeded in 96-well plates to assess cell viability by the 3-[4,5-dimethylthiazol-2-yl]-2,5-diphenyltetrazolium bromide (MTT) assay for 24 h at 37°C. Then cells were treated with compound 3 at different concentrations (3-100 µM) at 100μl/well. […]
and etoposid was used as positive controls under identical conditions. After 24, 48 and 72 h incubation, 5 mg/ml MTT solution (20 μl/well) was added and cultured for another 4 h. Then, the supernatant was discarded and dimethyl sulfoxide was added (100 μl/well). The absorbance (A) was measured spectrophotometrically at 540 nm by a Microplate Reader (SpectraMax i3x).
as §4, §5

[5] = 48 h, SI = IC50 on normal cells/IC50 on cancer cells

N.N.[Cl][Pt][Cl] [cisplatin]
IC50 ([1]; HEK-293, 24 h): 18.62 ± 0.09 µM | IC50 ([1]; HEK-293, 48 h): 4.7 ± 0.01 µM | IC50 ([1]; HEK-293, 72 h): 2.43 ± 0.01 µM | IC50 ([2]; 24 h): 26.1 ± 0.58 µM | IC50 ([2]; 48 h): 25.9 ± 0.48 µM | IC50 ([2]; 72 h): 10.3 ± 0.28 µM | IC50 ([3]; MDA-MB-231, 24 h): 8.43 ± 0.01 µM | IC50 ([3]; MDA-MB-231, 48 h): 2.19 ± 0.02 µM | IC50 ([3]; MDA-MB-231, 72 h): 1.78 ± 0.01 µM

COc1cc([C@@H]2c3cc4c(cc3[C@@H](O[C@@H]3O[C@@H]5CO[C@@H](C)O[C@H]5[C@H](O)[C@H]3O)[C@H]3COC(=O)[C@H]23)OCO4)cc(OC)c1O [etoposide]
IC50 ([1]; Homo sapiens, HEK293, HEK-293, 24 h): 110.3 ± 0.16 µM | IC50 ([1]; Homo sapiens, HEK293, HEK-293, 48 h): 59.2 ± 0.32 µM | IC50 ([1]; Homo sapiens, HEK293, HEK-293, 72 h): 51.62 ± 0.48 µM | SI HEK-293/LNCap [2, 5]: 0.95 | IC50 ([2]; Homo sapiens, 24 h): 81.47 ± 0.62 µM | IC50 ([2]; Homo sapiens, 48 h): 62.02 ± 0.61 µM | IC50 ([2]; Homo sapiens, 72 h): 20.79 ± 0.08 µM | SI HEK-293/MDA-MB-231 [3, 5]: 0.94 | IC50 ([3]; Homo sapiens, MDA-MB-231, 24 h): 85.4 ± 0.74 µM | IC50 ([3]; Homo sapiens, MDA-MB-231, 48 h): 63.17 ± 0.05 µM | IC50 ([3]; Homo sapiens, MDA-MB-231, 72 h): 24.3 ± 0.44 µM | SI HEK-293/Caco-2 [4, 5]: 1.1 | IC50 ([4]; Caco-2, 24 h): 76.27 ± 0.34 µM | IC50 ([4]; Caco-2, 48 h): 53.81 ± 0.17 µM | IC50 ([4]; Caco-2, 72 h): 17.5 ± 0.26 µM
